Measured values published in ChEMBL document CHEMBL3098003, “Structure-based design of 2-aminopyridine oxazolidinones as potent and selective tankyrase inhibitors” (ACS Med Chem Lett, 2013).

Columns and labels:
[1] = target: T1, Poly [ADP-ribose] polymerase tankyrase-1 (Homo sapiens, UniProt O95271); assay: Inhibition of recombinant 6XHis-tagged TNKS1 (1091 to 1325) (unknown origin) after 60 mins by spectrophotometric analysis
T1 sequence (O95271 whole entry): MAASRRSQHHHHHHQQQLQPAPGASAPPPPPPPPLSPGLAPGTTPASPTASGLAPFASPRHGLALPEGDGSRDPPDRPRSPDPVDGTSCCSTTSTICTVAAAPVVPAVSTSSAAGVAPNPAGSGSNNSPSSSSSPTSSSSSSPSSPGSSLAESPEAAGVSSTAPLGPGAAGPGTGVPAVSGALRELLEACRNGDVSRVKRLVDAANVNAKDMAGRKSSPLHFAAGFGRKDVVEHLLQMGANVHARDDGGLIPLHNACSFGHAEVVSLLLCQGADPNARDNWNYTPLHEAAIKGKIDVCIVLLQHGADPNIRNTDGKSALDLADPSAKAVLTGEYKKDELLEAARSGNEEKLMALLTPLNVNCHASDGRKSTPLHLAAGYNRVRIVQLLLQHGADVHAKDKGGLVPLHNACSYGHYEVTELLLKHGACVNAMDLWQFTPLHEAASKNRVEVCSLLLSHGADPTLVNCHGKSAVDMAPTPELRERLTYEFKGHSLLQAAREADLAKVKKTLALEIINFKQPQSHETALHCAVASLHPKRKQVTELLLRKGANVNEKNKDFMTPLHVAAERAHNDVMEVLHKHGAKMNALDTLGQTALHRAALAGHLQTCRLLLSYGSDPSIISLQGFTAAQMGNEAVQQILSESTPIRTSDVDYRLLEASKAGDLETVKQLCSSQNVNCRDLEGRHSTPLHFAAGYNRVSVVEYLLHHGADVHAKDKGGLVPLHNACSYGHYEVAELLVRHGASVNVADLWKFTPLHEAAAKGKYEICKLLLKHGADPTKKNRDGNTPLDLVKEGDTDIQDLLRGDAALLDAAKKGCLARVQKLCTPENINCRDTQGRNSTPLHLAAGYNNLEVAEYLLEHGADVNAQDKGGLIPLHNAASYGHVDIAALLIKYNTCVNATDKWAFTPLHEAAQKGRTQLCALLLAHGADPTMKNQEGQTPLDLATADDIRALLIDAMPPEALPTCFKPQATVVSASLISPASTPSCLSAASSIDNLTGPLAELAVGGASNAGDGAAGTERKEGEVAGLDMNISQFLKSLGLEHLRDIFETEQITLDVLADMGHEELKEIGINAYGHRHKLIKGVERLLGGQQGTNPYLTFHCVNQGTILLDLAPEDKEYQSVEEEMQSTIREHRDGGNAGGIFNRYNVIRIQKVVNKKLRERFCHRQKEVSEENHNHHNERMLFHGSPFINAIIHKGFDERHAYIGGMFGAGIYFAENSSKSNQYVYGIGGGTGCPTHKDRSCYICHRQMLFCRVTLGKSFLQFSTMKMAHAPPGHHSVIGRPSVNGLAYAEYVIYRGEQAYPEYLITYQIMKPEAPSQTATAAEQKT

Tankyrase 1/2 [2] = target: T2, Tankyrase 1/2 (Homo sapiens, UniProt Q9H2K2+O95271); assay: Inhibition of tankyrase in human SW480 cells assessed as degradation of total beta-catenin after 40 to 48 hrs; type: cell-based
T2 sequence (Q9H2K2 whole entry): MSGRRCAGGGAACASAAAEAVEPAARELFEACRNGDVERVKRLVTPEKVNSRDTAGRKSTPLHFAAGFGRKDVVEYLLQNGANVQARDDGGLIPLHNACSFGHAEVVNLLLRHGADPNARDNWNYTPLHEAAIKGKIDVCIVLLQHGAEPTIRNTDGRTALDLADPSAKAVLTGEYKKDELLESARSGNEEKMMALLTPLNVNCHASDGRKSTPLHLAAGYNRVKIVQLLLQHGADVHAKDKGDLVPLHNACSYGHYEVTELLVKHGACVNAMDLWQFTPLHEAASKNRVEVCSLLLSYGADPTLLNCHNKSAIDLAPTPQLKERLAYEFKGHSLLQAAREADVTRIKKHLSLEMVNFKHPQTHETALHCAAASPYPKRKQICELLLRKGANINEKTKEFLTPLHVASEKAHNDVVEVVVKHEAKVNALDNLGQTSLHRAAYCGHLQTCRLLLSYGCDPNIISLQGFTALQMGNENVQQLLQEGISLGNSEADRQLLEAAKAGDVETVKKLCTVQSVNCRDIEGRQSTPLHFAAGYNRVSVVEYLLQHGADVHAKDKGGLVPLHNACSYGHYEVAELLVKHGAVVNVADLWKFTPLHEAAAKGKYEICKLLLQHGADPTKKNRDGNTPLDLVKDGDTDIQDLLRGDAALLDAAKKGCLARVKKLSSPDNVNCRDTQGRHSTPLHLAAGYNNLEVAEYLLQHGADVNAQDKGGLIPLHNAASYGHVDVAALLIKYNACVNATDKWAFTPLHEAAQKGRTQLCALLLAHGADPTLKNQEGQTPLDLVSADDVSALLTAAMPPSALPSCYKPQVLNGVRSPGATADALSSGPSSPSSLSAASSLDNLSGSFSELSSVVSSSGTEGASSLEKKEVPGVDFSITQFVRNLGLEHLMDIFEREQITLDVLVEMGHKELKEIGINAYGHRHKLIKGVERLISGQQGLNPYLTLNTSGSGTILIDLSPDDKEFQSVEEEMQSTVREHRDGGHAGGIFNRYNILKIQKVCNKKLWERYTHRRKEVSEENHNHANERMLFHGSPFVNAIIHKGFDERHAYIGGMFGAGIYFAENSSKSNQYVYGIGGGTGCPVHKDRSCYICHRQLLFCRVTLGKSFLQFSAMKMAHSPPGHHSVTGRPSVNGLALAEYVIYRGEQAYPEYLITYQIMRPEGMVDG
T2 sequence (O95271 whole entry): T1 sequence (O95271 whole entry)

Tankyrase 1/2 [3] = target: T2, Tankyrase 1/2; assay: Inhibition of tankyrase in human SW480 cells assessed as axin2 accumulation after 24 hrs by Hoechst dye-based assay; type: cell-based
[4] = target: Poly [ADP-ribose] polymerase 1 (Homo sapiens, UniProt P09874); assay: Inhibition of PARP1 (unknown origin)
Sequence of Poly [ADP-ribose] polymerase 1 (P09874 whole entry): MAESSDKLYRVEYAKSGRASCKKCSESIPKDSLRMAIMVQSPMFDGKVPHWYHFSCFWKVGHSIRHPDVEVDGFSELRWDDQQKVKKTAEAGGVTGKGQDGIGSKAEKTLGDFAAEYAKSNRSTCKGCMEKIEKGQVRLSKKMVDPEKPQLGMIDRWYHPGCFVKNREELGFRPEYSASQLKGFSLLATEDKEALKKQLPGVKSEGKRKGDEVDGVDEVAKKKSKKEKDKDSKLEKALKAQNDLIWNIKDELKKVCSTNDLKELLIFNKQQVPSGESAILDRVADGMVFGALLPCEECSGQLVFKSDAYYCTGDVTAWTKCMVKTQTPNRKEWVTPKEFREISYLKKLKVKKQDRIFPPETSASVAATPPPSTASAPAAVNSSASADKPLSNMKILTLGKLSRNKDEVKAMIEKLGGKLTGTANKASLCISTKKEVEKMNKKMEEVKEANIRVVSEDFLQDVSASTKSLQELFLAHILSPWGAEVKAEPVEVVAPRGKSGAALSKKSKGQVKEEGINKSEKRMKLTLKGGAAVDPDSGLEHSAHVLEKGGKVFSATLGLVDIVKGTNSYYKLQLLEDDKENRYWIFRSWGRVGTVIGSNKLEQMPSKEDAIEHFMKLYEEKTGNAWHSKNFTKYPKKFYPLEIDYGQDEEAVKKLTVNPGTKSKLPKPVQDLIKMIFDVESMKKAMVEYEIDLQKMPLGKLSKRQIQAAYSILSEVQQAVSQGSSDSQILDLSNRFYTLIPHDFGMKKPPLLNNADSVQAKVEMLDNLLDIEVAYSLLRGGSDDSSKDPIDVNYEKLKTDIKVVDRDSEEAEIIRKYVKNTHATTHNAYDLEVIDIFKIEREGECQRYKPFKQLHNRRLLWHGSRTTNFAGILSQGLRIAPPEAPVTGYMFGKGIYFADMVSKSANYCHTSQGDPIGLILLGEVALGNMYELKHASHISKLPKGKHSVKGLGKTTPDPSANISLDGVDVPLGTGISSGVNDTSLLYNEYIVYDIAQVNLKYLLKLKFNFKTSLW

Tankyrase 1/2 [5] = target: T2, Tankyrase 1/2; assay: Inhibition of tankyrase in human DLD1 cells assessed as inhibition of Wnt gene transcription after 40 to 48 hrs by STF assay; type: cell-based; conditions: dld-1
[6] = target: Poly [ADP-ribose] polymerase 2 (Homo sapiens, UniProt Q9UGN5); assay: Inhibition of PARP2 (unknown origin)
Sequence of Poly [ADP-ribose] polymerase 2 (Q9UGN5 whole entry): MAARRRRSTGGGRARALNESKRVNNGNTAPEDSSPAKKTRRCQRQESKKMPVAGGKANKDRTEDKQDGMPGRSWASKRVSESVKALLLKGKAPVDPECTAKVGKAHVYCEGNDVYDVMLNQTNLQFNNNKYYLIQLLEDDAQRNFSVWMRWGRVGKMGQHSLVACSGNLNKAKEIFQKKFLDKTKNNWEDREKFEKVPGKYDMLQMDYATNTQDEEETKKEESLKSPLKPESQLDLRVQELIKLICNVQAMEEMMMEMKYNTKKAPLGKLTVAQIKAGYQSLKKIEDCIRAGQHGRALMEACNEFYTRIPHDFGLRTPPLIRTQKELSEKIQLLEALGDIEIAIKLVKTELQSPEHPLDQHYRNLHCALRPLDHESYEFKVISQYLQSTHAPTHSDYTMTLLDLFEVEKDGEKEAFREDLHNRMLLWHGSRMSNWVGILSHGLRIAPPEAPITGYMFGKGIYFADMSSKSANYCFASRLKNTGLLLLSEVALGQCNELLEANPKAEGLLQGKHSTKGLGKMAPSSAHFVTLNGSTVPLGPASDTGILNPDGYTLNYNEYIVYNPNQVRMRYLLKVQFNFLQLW

| IC50 [1] [µM] | IC50 (Tankyrase 1/2 [2]) [µM] | EC50 (Tankyrase 1/2 [3]) [µM] | IC50 [4] [µM] | IC50 (Tankyrase 1/2 [5]) [µM] | IC50 [6] [µM] | Structure (SMILES) |
| --- | --- | --- | --- | --- | --- | --- |
| 0.148 | – | – | – | – | – | CC1(C)OC(=O)N([C@H]2CC[C@H](c3ccc(N)nc3)CC2)[C@H]1c1ccccc1 |
| 0.15 | 2 | – | – | – | – | CC1(C)CC(=O)Nc2cc(NC(=O)c3cc(-c4ccc5nc(N)ncc5c4)ccc3F)ccc21 |
| 0.009 | 0.392 | 0.474 | > 85 | 0.043 | > 170 | CC1(C)OC(=O)N([C@H]2CC[C@H](c3cnc(N)c(C#N)c3)CC2)[C@H]1c1ccccc1 |
